Experimental data as given in ChEMBL document CHEMBL4665903, “Novel Tricyclic Compounds for Treating Bacterial Infection” (ACS Med Chem Lett, 2020).

Assays:
Assay type in all cases: functional, organism-based
Klebsiella pneumoniae = experiment: Antibacterial activity against Klebsiella pneumoniae ATCC 10031 assessed as bacterial growth inhibition and measured every 20 mins for 16 hrs
Staphylococcus aureus = experiment: Antibacterial activity against Staphylococcus aureus ATCC 29213 assessed as bacterial growth inhibition and measured every 20 mins for 16 hrs
Acinetobacter baumannii = experiment: Antibacterial activity against Acinetobacter baumannii ATCC 17978 assessed as bacterial growth inhibition and measured every 20 mins for 16 hrs

SMILES: CNc1cc(F)c(F)c2c1[nH]c1ncc(-c3cncc(C#N)c3)c(N3CCCC(F)(CN)C3)c12 (stereo not drawn)
- IC50 (Klebsiella pneumoniae): < 98 nM
- IC50 (Staphylococcus aureus): 477 nM
- IC50 (Acinetobacter baumannii): < 98 nM

SMILES: CNc1cc(F)c(F)c2c1[nH]c1ncc(-c3cnc(OC)nc3)c(N3CC[C@@]4(C[C@@H]4N)C3)c12
- IC50 (Klebsiella pneumoniae): < 98 nM
- IC50 (Staphylococcus aureus): 184 nM
- IC50 (Acinetobacter baumannii): < 98 nM

SMILES: CNc1cc(F)c(F)c2c1[nH]c1ncc(-c3cnc4ccnn4c3)c(N3CC[C@H]4CN(C)C[C@H]43)c12
- IC50 (Klebsiella pneumoniae): < 98 nM
- IC50 (Staphylococcus aureus): 369 nM
- IC50 (Acinetobacter baumannii): < 98 nM

SMILES: CCNc1cc(F)cc2c1[nH]c1ncc(-c3cncc(C#N)c3)c(N3CC[C@@]4(C[C@H]4N)C3)c12
- IC50 (Klebsiella pneumoniae): < 98 nM
- IC50 (Staphylococcus aureus): 863 nM
- IC50 (Acinetobacter baumannii): < 98 nM

SMILES: CCNc1cc(F)c(F)c2c1[nH]c1ncc(-c3cnc(OC)nc3)c(N3CCC[C@@H](CN)C3)c12
- IC50 (Klebsiella pneumoniae): < 98 nM
- IC50 (Staphylococcus aureus): 394 nM
- IC50 (Acinetobacter baumannii): < 98 nM

SMILES: CCNc1cc(F)cc2c1[nH]c1ncc(-c3cncc(C#N)c3)c(N3CCC(F)(CN)C3)c12 (stereo not drawn)
- IC50 (Klebsiella pneumoniae): < 98 nM
- IC50 (Staphylococcus aureus): 312 nM
- IC50 (Acinetobacter baumannii): < 98 nM
